Assay results reported in US8394630B2, “Producing a mammalian pluripotent cell population from mammalian blastomere-like stem cells (BLSCs)” (StemBios Technologies, Inc., priority 2009, dated 2013).

System: BLSCs
Test: Culturing BLSCs in medium containing RA or TGF-β to produce SBR and SBT cells
Format: cell-based, human
Details: StemBios-003 medium, 0.1 to 20 μM RA or 1 to 40 nM TGF-β, over 2-6 weeks
Method: The method for activation, purification, and expansion of BLSCs has been described in WO/2007/100845. In this example, BLSCs were purified from blood of a human subject using two methods. The isolated cells were analyzed by flow cytometry.
The purified BLSCs were cultured in StemBios-001. To produce SBR and SBT cells, BLSCs were cultured in a StemBios-002 medium for 2 weeks. Then, the BLSCs were cultured in a StemBios-003 medium containing 0.1 to 20 μM of RA or 1 to 40 nM of TGF-β for over 2˜6 weeks. […] These cells were named SBR and SBT cells respectively.

Substance: TGF-β
- change of morphology and sizes of cultured BLSCs: gradually changed their morphology and sizes
